Measurements taken from ChEMBL document CHEMBL2169792, “Synthesis of new 4-thiazolidinone-, pyrazoline-, and isatin-based conjugates with promising antitumor activity” (J Med Chem, 2012).
Activity calls are given as the source filed them. No cut-off for these calls is given here.

Tests used:
HOP-62 = experiment: Cytotoxicity against human HOP62 cells after 48 hrs by SRB assay; assay type: functional; conditions: HOP-62, 48 h
RPMI-8226 = experiment: Cytotoxicity against human RPMI8226 cells after 48 hrs by SRB assay; assay type: functional; conditions: RPMI-8226, 48 h
OVCAR-5 = experiment: Cytotoxicity against human OVCAR5 cells after 48 hrs by SRB assay; assay type: functional; conditions: OVCAR-5, 48 h
COLO 205 = experiment: Cytotoxicity against human COLO205 cells after 48 hrs by SRB assay; assay type: functional; conditions: COLO 205, 48 h
SW-620 = experiment: Cytotoxicity against human SW620 cells after 48 hrs by SRB assay; assay type: functional; conditions: SW-620, 48 h
NCI-H322M = experiment: Cytotoxicity against human NCI-H322M cells after 48 hrs by SRB assay; assay type: functional
IGROV-1 = experiment: Cytotoxicity against human IGROV1 cells after 48 hrs by SRB assay; assay type: functional; conditions: IGROV-1, 48 h
SK-MEL-2 = experiment: Cytotoxicity against human SK-MEL-2 cells after 48 hrs by SRB assay; assay type: functional; conditions: SK-MEL-2, 48 h, read-out: LC50 (the source's name)
Mus musculus = experiment: Antitumor activity in ip dosed athymic nude mouse hollow fiber model assessed as reduction of viable cell mass; assay type: functional, organism-based
U-251 = experiment: Cytotoxicity against human U251 cells after 48 hrs by SRB assay; assay type: functional; conditions: U-251, 48 h
SR = experiment: Cytotoxicity against human SR cells after 48 hrs by SRB assay; assay type: functional
SNB-75 = experiment: Cytotoxicity against human SNB75 cells after 48 hrs by SRB assay; assay type: functional; conditions: SNB-75, 48 h
[1] = Cytotoxicity against human colon cancer cells after 48 hrs by SRB assay; assay type: functional; conditions: Cancer cell lines
TK-10 = experiment: Cytotoxicity against human TK10 cells after 48 hrs by SRB assay; assay type: functional; conditions: TK-10, 48 h
MDA-MB-468 = experiment: Cytotoxicity against human MDA-MB-468 cells after 48 hrs by SRB assay; assay type: functional; conditions: MDA-MB-468, 48 h
SN12C = experiment: Cytotoxicity against human SN12C cells after 48 hrs by SRB assay; assay type: functional
SNB-19 = experiment: Cytotoxicity against human SNB19 cells after 48 hrs by SRB assay; assay type: functional; conditions: SNB-19, 48 h
[2] = Cytotoxicity against human prostate cancer cells after 48 hrs by SRB assay; assay type: functional; conditions: Cancer cell lines
HT-29 = experiment: Cytotoxicity against human HT-29 cells after 48 hrs by SRB assay; assay type: functional; conditions: HT-29, 48 h
T47D = experiment: Cytotoxicity against human T47D cells after 48 hrs by SRB assay; assay type: functional
SF-295 = experiment: Cytotoxicity against human SF295 cells after 48 hrs by SRB assay; assay type: functional; conditions: SF-295, 48 h
NCI-H522 = experiment: Cytotoxicity against human NCI-H522 cells after 48 hrs by SRB assay; assay type: functional; conditions: NCI-H522, 48 h
[3] = Cytotoxicity against human breast cancer cells after 48 hrs by SRB assay; assay type: functional; conditions: Cancer cell lines
HL-60(TB) = experiment: Cytotoxicity against human HL-60(TB) cells after 48 hrs by SRB assay; assay type: functional; conditions: HL-60, 48 h
MOLT-4 = experiment: Cytotoxicity against human MOLT4 cells after 48 hrs by SRB assay; assay type: functional; conditions: MOLT-4, 48 h
[4] = Cytotoxicity against human ovarian cancer cells after 48 hrs by SRB assay; assay type: functional; conditions: Cancer cell lines
OVCAR-4 = experiment: Cytotoxicity against human OVCAR4 cells after 48 hrs by SRB assay; assay type: functional; conditions: OVCAR-4, 48 h
ACHN = experiment: Cytotoxicity against human ACHN cells after 48 hrs by SRB assay; assay type: functional
SF-539 = experiment: Cytotoxicity against human SF539 cells after 48 hrs by SRB assay; assay type: functional; conditions: SF-539, 48 h
NCI-H226 = experiment: Cytotoxicity against human NCI-H226 cells after 48 hrs by SRB assay; assay type: functional; conditions: NCI-H226, 48 h
CAKI-1 = experiment: Cytotoxicity against human CAKI-1 cells after 48 hrs by SRB assay; assay type: functional; conditions: CAKI-1, 48 h
HCT-15 = experiment: Cytotoxicity against human HCT15 cells after 48 hrs by SRB assay; assay type: functional; conditions: HCT-15, 48 h
SK-MEL-5 = experiment: Cytotoxicity against human SK-MEL-5 cells after 48 hrs by SRB assay; assay type: functional; conditions: SK-MEL-5, 48 h, read-out: LC50 (the source's name)
BT-549 = experiment: Cytotoxicity against human BT549 cells after 48 hrs by SRB assay; assay type: functional; conditions: BT-549, 48 h
[5] = Toxicity in mouse; assay type: organism-based; conditions: in vivo
SF-268 = experiment: Cytotoxicity against human SF268 cells after 48 hrs by SRB assay; assay type: functional; conditions: SF-268, 48 h
[6] = read-out: LC50 (the source's name)

COc1ccc(C2CC(c3ccc4ccccc4c3)=NN2C2=NC(=O)/C(=C3\C(=O)Nc4ccc(Br)cc43)S2)cc1 (configuration not stated)
GI50 (HOP-62): 22 nM | TGI (HOP-62): 49.8 nM | CC50 (HOP-62; [6]): > 157 nM | GI50 (RPMI-8226): 214 nM | TGI (RPMI-8226): 1400 nM | CC50 (RPMI-8226; [6]): > 42.2 µM | GI50 (OVCAR-5): 33.6 nM | TGI (OVCAR-5): 131 nM | CC50 (OVCAR-5; [6]): 2110 nM | GI50 (COLO 205): 21 nM | TGI (COLO 205): 42 nM | CC50 (COLO 205; [6]): > 84.1 nM | GI50 (SW-620): 22 nM | TGI (SW-620): 47.7 nM | CC50 (SW-620; [6]): 127 nM | GI50 (NCI-H322M): 36 nM | TGI (NCI-H322M): 560 nM | CC50 (NCI-H322M; [6]): > 64.1 µM | GI50 (IGROV-1): 49.8 nM | TGI (IGROV-1): 451 nM | CC50 (IGROV-1; [6]): > 100 µM | CC50 (SK-MEL-2): 882 nM | Activity (Mus musculus): inactive | GI50 (U-251): 24.6 nM | TGI (U-251): 57.8 nM | CC50 (U-251; [6]): 289 nM | GI50 (SR): 28.9 nM | TGI (SR): 130 nM | CC50 (SR; [6]): > 100 µM | GI50 (SNB-75): 15.9 nM | TGI (SNB-75): 34.3 nM | CC50 (SNB-75; [6]): > 69.8 nM | GI50 [1]: 50 nM | LC50 (concentration lethal to 50% of cells) [1]: 1150 nM | TGI [1]: 140 nM | GI50 (TK-10): 170 nM | TGI (TK-10): 522 nM | CC50 (TK-10; [6]): > 100 µM | GI50 (MDA-MB-468): 22.3 nM | TGI (MDA-MB-468): 62.2 nM | CC50 (MDA-MB-468; [6]): 190 nM | GI50 (SN12C): 43.4 nM | TGI (SN12C): 223 nM | CC50 (SN12C; [6]): 1700 nM | GI50 (SNB-19): 38.5 nM | TGI (SNB-19): 411 nM | CC50 (SNB-19; [6]): 8.98 µM | GI50 [2]: 59 nM | LC50 [2]: 13.8 µM | TGI [2]: 510 nM | GI50 (HT-29): 199 nM | TGI (HT-29): 537 nM | GI50 (T47D): 23.6 nM | TGI (T47D): 61 nM | GI50 (SF-295): 26.5 nM | TGI (SF-295): 78.6 nM | CC50 (SF-295; [6]): 1170 nM | GI50 (NCI-H522): 124 nM | TGI (NCI-H522): 288 nM | GI50 [3]: 61 nM | LC50 (concentration causing 50% net cell kill) [3]: 2650 nM | TGI [3]: 990 nM | GI50 (HL-60(TB)): 257 nM | TGI (HL-60(TB)): 3.2 µM | CC50 (HL-60(TB); [6]): > 49.3 µM | GI50 (MOLT-4): 30.7 nM | TGI (MOLT-4): 521 nM | CC50 (MOLT-4; [6]): > 100 µM | GI50 [4]: 110 nM | LC50 (concentration causing 50% net cell kill) [4]: 18.8 µM | TGI [4]: 850 nM | GI50 (OVCAR-4): 32.6 nM | TGI (OVCAR-4): > 111 nM | CC50 (OVCAR-4; [6]): > 100 µM | GI50 (ACHN): 26.7 nM | TGI (ACHN): 64.6 nM | CC50 (ACHN; [6]): > 32.3 µM | GI50 (SF-539): 23.1 nM | TGI (SF-539): 54.2 nM | CC50 (SF-539; [6]): 296 nM | GI50 (NCI-H226): 21.5 nM | TGI (NCI-H226): 173 nM | CC50 (NCI-H226; [6]): 586 nM | GI50 (CAKI-1): 96.5 nM | TGI (CAKI-1): 608 nM | CC50 (CAKI-1; [6]): > 100 µM | GI50 (HCT-15): 62.9 nM | TGI (HCT-15): 325 nM | CC50 (HCT-15; [6]): > 2450 nM | CC50 (SK-MEL-5): 341 nM | GI50 (BT-549): 553 nM | TGI (BT-549): 7.74 µM | CC50 (BT-549; [6]): 35.1 µM | MTD [5]: > 400 mg/kg | GI50 (SF-268): 36.5 nM | TGI (SF-268): 222 nM | CC50 (SF-268; [6]): 9.63 µM
